# Data from US10017459B2, “β-substituted β-amino acids and analogs as chemotherapeutic agents and uses thereof” (Quadriga Biosciences, Inc., priority 2015, dated 2018).
# Read-outs that look alike come from different tables or passages of the source.
# How the values were obtained:
# [1] = molecular target: T1, hLAT1 (Homo sapiens, UniProt Q01650); experiment: LAT1 uptake inhibition assay, radiolabeled competition uptake with [3H]-Gabapentin; assay type: cell-based
# T1 construct: expressed in transfected cells; host or cells: LLCPK cells, tetracycline/doxycycline-inducible, boosted with sodium butyrate
# [2] = test system: LLCPK cells conditionally expressing hLAT1; experiment: cells; settings: 0.5 h, read-out: LC50, concentration of test compound at which the percent surviving cells was 50%
# [3] = molecular target: T2, hLAT2 (Homo sapiens, UniProt Q9UHI5); experiment: LAT2 uptake inhibition assay, radiolabeled competition uptake with [3H]-leucine; assay type: cell-based
# T2 construct: expressed in transfected cells; host or cells: KB or LLCPK cells, tetracycline/doxycycline-inducible
# T2 sequence (Q9UHI5 1-535): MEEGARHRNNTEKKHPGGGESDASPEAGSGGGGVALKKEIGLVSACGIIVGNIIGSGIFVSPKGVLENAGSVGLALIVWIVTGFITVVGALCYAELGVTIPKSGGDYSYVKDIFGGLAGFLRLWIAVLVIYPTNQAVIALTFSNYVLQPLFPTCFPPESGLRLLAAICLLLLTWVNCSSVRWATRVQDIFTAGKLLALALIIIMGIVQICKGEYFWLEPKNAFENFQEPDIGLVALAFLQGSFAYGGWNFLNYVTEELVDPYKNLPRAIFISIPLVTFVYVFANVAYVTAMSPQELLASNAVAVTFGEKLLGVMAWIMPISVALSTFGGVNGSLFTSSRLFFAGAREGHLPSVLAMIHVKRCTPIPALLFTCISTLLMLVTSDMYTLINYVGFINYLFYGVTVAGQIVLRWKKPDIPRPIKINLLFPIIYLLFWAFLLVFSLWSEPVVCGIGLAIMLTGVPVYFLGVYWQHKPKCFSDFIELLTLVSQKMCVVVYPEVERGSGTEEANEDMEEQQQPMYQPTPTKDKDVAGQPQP
# T2 sequence (P08195 1-630 isoform P08195-1 partner): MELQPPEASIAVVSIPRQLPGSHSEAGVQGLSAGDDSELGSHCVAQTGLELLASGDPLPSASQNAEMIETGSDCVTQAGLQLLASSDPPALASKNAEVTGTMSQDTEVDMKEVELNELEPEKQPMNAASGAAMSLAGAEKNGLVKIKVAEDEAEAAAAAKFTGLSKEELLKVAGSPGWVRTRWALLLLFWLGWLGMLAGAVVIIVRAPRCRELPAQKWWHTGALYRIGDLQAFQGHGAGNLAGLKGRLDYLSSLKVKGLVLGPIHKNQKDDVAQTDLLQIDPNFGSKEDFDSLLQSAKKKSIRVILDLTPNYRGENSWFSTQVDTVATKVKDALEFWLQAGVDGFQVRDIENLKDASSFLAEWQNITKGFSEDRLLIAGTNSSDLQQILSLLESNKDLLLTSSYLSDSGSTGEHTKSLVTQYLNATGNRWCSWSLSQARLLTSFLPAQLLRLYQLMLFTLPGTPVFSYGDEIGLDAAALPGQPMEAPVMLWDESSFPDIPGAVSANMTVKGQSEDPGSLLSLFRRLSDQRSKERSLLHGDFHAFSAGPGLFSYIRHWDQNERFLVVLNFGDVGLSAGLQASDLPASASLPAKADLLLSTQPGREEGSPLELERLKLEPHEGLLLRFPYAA
# [4] = test system: PC3; experiment: cells; assay type: cell-based; settings: Homo sapiens, PC-3, read-out: IC50 (in vitro toxicity)
# [5] = test system: DBRTG; experiment: cells; assay type: cell-based; settings: read-out: IC50 (in vitro toxicity)
# [6] = test system: MV411; experiment: cells; assay type: cell-based; settings: Homo sapiens, MV4-11, read-out: IC50 (in vitro toxicity)
# [7] = test system: Raji; experiment: cells; assay type: cell-based; settings: Homo sapiens, read-out: IC50 (in vitro toxicity)
# [8] = test system: 42MGBA; experiment: cells; assay type: cell-based; settings: read-out: IC50 (in vitro toxicity)
# [9] = test system: G55; experiment: cells; assay type: cell-based; settings: read-out: IC50 (in vitro toxicity)
# [10] = test system: MCF7; experiment: In vitro cytotoxicity, MCF7; assay type: cell-based; settings: Homo sapiens, MCF7, read-out: IC50 (in vitro toxicity)
# [11] = test system: MDA-MB-231; experiment: cells; assay type: cell-based; settings: Homo sapiens, MDA-MB-231, read-out: IC50 (in vitro toxicity)
# [12] = test system: LN229; experiment: cells; assay type: cell-based; settings: Homo sapiens, LN-229, read-out: IC50 (in vitro toxicity)
# [13] = test system: 794; experiment: cells; assay type: cell-based; settings: read-out: IC50 (in vitro toxicity)
# [14] = test system: U251; experiment: cells; assay type: cell-based; settings: Homo sapiens, U-251, read-out: IC50 (in vitro toxicity)
# [15] = test system: D283; experiment: cells; assay type: cell-based; settings: D283, read-out: IC50 (in vitro toxicity)
# [16] = test system: U251 MG; experiment: Orthotopic glioblastoma study (Example 84); assay type: in vivo, mouse; settings: at a dose of 10 mg/kg, IV
# Protocol: The efficacy of compounds provided by the present disclosure was evaluated using an orthotopic luciferase human glioblastoma model—U251 MG. Human glioblastoma cells were intracolonically injected (3×10^5 cells/3 μL) into athymic mice (female, 4-5 weeks-old, nu/un homozygous). Treatment began when the BLI reached a log-phase growth, at about 14 days after injection. Ten mice were assigned to each arm of the study. The mice were dosed with vehicle (IP, once weekly for 4 weeks), compound (5) (5 mg/kg, IV once weekly for 4 weeks), compound (5) (10 mg/kg, IV once weekly for 4 weeks), compound (40) (10 mg/kg, IV once weekly for 4 weeks), or compound (50) (20 mg/kg, IV single dose). The tumor volume was measured using bioluminescence imaging.
# [17] = test system: HCT116; experiment: In vitro cytotoxicity, HCT116; assay type: cell-based; settings: Homo sapiens, HCT-116, read-out: IC50 (in vitro toxicity)
# [18] = test system: Human prostate cancer PC3 cells; settings: mouse, in vivo
# [19] = LAT1-expressing cells, increasing concentration of test compound, read-out: IC50, concentration of test compound at which the [3H]-GP was inhibited by 50%
# [20] = KB cells, read-out: IC50, concentration of test compound at which the [3H]-Leu was inhibited by 50%
# T1 sequence (Q01650 whole entry, one chain of several): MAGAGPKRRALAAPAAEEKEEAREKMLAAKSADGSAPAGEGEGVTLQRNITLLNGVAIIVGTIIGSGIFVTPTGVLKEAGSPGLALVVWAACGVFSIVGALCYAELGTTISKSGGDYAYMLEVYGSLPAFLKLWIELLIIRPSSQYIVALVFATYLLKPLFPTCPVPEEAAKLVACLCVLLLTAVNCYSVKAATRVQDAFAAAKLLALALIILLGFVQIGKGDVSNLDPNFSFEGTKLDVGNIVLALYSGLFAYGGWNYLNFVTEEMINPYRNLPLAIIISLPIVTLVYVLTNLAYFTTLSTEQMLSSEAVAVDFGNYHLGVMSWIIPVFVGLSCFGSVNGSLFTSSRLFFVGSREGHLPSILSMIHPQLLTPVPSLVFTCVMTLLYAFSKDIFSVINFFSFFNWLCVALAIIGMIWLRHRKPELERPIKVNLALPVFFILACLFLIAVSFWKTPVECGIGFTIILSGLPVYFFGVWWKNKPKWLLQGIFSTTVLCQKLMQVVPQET
structure (smiles),measurement,setting,value
"N[C@@H](COc1cccc(N(CCCl)CCCl)c1)CC(=O)O [Compound 68, (3R)-3-amino-4-[3-[bis(2-chloroethyl)amino]phenoxy]butanoic acid]",IC50,[1],< 100 µM
"N[C@H](CC(=O)O)Cc1cc(N(CCCl)CCCl)ccc1N(CCCl)CCCl [Compound 53, (3S)-3-amino-4-[2,5-bis[bis(2-chloroethyl)amino]phenyl]butanoic acid]",CC50,[2],< 1000 nM
same,IC50,[3],< 100 µM
"Cc1ccc(C(=O)N[C@@H](CC(C)C)C(=O)C2(C)CO2)cc1C[C@H](N)CC(=O)O (stereo in doubt) [Compound 63, (3S)-3-amino-4-[2-methyl-5-[[(1S)-3-methyl-1-[(2R)-2-methyloxirane-2-carbonyl]butyl]carbamoyl]phenyl]butanoic acid]",IC50,[1]; [19],< 100 µM
same,IC50,[3]; [20],< 100 µM
"Cc1ccc(N(CCCl)CCCl)cc1CC(N)CC(=O)O (racemic) [Compound 3, 3-Amino-4-[5-[bis(2-chloroethyl)amino]-2-methyl-phenyl]butanoic Acid]",CC50,[2],< 1000 nM
"N[C@H](CC(=O)O)Cc1cc(CON(CCCl)CCCl)ccc1[N+](=O)[O-] [Compound 45, (3S)-3-amino-4-[5-[bis(2-chloroethyl)aminooxymethyl]-2-nitro-phenyl]butanoic acid]",IC50,[1],< 100 µM
same,IC50,[3],< 100 µM
"Cc1ccc(N(CCCl)CCCl)cc1NC(=O)[C@H](N)CC(=O)O [Compound 22, (3R)-3-Amino-4-[[5-[bis(2-chloroethyl)amino]-2-methyl-phenyl]amino]-4-oxo-butanoic Acid]",CC50,[2],< 1000 nM
same,IC50,[3],< 100 µM
"Cc1ccc(OC(=O)N(CCCl)CCCl)cc1C[C@H](N)CC(=O)O [Compound 29, (3S)-3-Amino-4-[5-[bis(2-chloroethyl)carbamoyloxy]-2-methyl-phenyl]butanoic Acid]",IC50,[1],< 100 µM
"Cc1ccc(N(CCCl)CCCl)c(C[C@H](N)CC(=O)O)c1 [Compound 50, (3S)-3-amino-4-[2-[bis(2-chloroethyl)amino]-5-methyl-phenyl]butanoic acid]",IC50,[4],< 100 µM
same,IC50,[5],< 100 µM
same,IC50,[6],< 100 µM
same,IC50,[7],< 100 µM
same,IC50,[8],< 100 µM
same,IC50,[3],< 100 µM
same,IC50,[9],< 100 µM
same,IC50,[10],< 100 µM
same,IC50,[11],< 100 µM
same,IC50,[12],< 100 µM
same,IC50,[13],< 100 µM
same,IC50,[14],< 100 µM
same,IC50,[15],< 100 µM
same,glioblastoma tumor growth (bioluminescence imaging),[16],suppressed glioblastoma tumor growth
same,IC50,[17],< 100 µM
"Cc1ccc(CBr)cc1C[C@H](N)CC(=O)O [Compound 57, (3S)-3-amino-4-[5-(bromomethyl)-2-methyl-phenyl]butanoic acid]",IC50,[1]; [19],< 100 µM
same,IC50,[3]; [20],< 100 µM
"Cc1ccc(COC(=O)N(CCCl)CCCl)cc1C[C@H](N)CC(=O)O [Compound 30, (3S)-3-Amino-4-[5-[bis(2-chloroethyl)carbamoyloxymethyl]-2-methyl-phenyl]butanoic Acid]",IC50,[1],< 100 µM
"Cc1ccc(N(CCO)CCCl)cc1C[C@H](N)CC(=O)O [Compound 58, (3S)-3-amino-4-[5-(2-chloroethyl(2-hydroxyethyl)amino)-2-methyl-phenyl]butanoic acid]",IC50,[1],< 100 µM
"CC(C)Oc1ccc(N(CCCl)CCCl)cc1C[C@H](N)CC(=O)O [Compound 43, (3S)-3-amino-4-[5-[bis(2-chloroethyl)amino]-2-isopropoxy-phenyl]butanoic acid]",CC50,[2],< 1000 nM
same,IC50,[1],< 100 µM
same,IC50,[3],< 100 µM
"Cc1cc(N(CCCl)CCCl)ccc1OC[C@H](N)CC(=O)O [Compound 27, (3R)-3-Amino-4-[4-[bis(2-chloroethyl)amino]-2-methyl-phenoxy]butanoic Acid]",CC50,[2],< 1000 nM
"Cc1ccc(NCCCl)cc1C[C@H](N)CC(=O)O [Compound 54, (3S)-3-amino-4-[5-(2-chloroethylamino]-2-methyl-phenyl]butanoic acid]",IC50,[3],< 100 µM
"CCc1ccc(N(CCCl)CCCl)cc1C[C@H](N)CC(=O)O [Compound 40, (3S)-3-amino-4-[5-[bis(2-chloroethyl)amino]-2-ethyl-phenyl]butanoic acid]",IC50,[4],< 100 µM
same,IC50,[5],< 100 µM
same,body weight,[18],maintained weight
same,myelosuppression,[18],not dectected
same,tumor growth suppression,[18],dose-dependent tumor growth suppression
same,IC50,[6],< 100 µM
same,IC50,[7],< 100 µM
same,CC50,[2],< 1000 nM
same,IC50,[1],< 100 µM
same,IC50,[8],< 100 µM
same,IC50,[3],< 100 µM
same,IC50,[9],< 100 µM
same,IC50,[10],< 100 µM
same,IC50,[11],< 100 µM
same,IC50,[12],< 100 µM
same,IC50,[14],< 100 µM
same,IC50,[15],< 100 µM
same,glioblastoma tumor growth (bioluminescence imaging),[16],suppressed glioblastoma tumor growth
same,IC50,[17],< 100 µM
"CCOc1ccc(N(CCCl)CCCl)cc1C[C@H](N)CC(=O)O [Compound 42, (3S)-3-amino-4-[5-[bis(2-chloroethyl)amino]-2-ethoxy-phenyl]butanoic acid]",CC50,[2],< 1000 nM
same,IC50,[1],< 100 µM
same,IC50,[3],< 100 µM
"COc1ccc(N(CCO)CCCl)cc1C[C@H](N)CC(=O)O [Compound 60, (3S)-3-amino-4-[5-(2-chloroethyl (2-hydroxyethyl)amino)-2-methoxy-phenyl]butanoic acid]",IC50,[1],< 100 µM
same,IC50,[3],< 100 µM
"N[C@H](CC(=O)O)Cc1cc(CO)ccc1N(CCCl)CCCl [Compound 52, (3S)-3-amino-4-[2-[bis(2-chloroethyl)amino]-5-(hydroxymethyl)phenyl]butanoic acid]",CC50,[2],< 1000 nM
same,IC50,[3],< 100 µM
"N[C@@H](COc1ccc(N(CCCl)CCCl)cc1)CC(=O)O [Compound 69, (3R)-3-amino-4-[4-[bis(2-chloroethyl)amino]phenoxy]butanoic acid]",IC50,[1],< 100 µM
"Cc1ccc(CON(CCCl)CCCl)cc1C[C@H](N)CC(=O)O [Compound 32, (3S)-3-Amino-4-[5-[bis(2-chloroethyl)aminooxymethyl]-2-methyl-phenyl]butanoic Acid]",IC50,[1],< 100 µM
same,IC50,[3],< 100 µM
"Cc1ccc(N(CCBr)CCOS(C)(=O)=O)cc1C[C@H](N)CC(=O)O [Compound 20, (3S)-3-Amino-4-[5-(2-bromoethyl(2-methylsulfonyloxyethyl)amino)-2-methyl-phenyl]butanoic Acid]",IC50,[3],< 100 µM
